Assay results published in US20230183245A1, “IMIDAZO-PYRIMIDONE COMPOUNDS AS PESTICIDES” (BASF SE, priority 2020, published 2023).

How the values were obtained:
Assay type in all cases: in vivo
[1] = tested on: Nezara viridula; test: Green soldier stink bug (Nezara viridula) soybean pod spray test; details: 120 h, 5 days, late 3rd instar, read-out: Percent mortality in comparison with untreated controls
Description: (§1) If not otherwise specified, the test solutions are prepared as follows: The active compound is dissolved at the desired concentration in a mixture of 1:1 (vol:vol) distilled water: acteone. The test solution is prepared at the day of use. Test solutions are prepared in general at concentrations of 2500 ppm, 1415 ppm and 800 ppm (wt/vol).
The active compound is dissolved at the desired concentration in a mixture of 1:1 (vol:vol) distilled water: aceteone. Surfactant (Kinetic) is added at a rate of 0.01% (vol/vol).The test solution is prepared at the day of use. Soybean pods are placed in 90 × 50 mm glass Petri dishes lined with moistened filter paper and inoculated with ten late 3rd instar N. viridula. Using a hand atomizer, an approximately 2 ml solution is sprayed into each Petri dish. Treated set-up is kept at about 25-26° C. and relative humidity of about 65-70%. Percent mortality is recorded after 5 days.

[2] = tested on: Aedes aegypti; test: whole plant or invertebrate; details: 48 h, 2 days, freshly hatched larvae, read-out: Larval mortality in comparison with untreated controls
Description: as §1
For evaluating control of yellow fever mosquito (Aedes aegypti) the test unit consisted of 96-well-microtiter plates containing 200 µl of tap water per well and 5-15 freshly hatched A. aegypti larvae. The active compounds were formulated using a solution containing 75% (v/v) water and 25% (v/v) DMSO. Different concentrations of formulated compounds or mixtures were sprayed onto the […] at 2.5 µl, using a custom built micro atomizer, at two replications. After application, microtiter plates were incubated at 28 + 1° C., 80 + 5% RH for 2 days. Larval mortality was then visually assessed.

[3] = tested on: Heliothis virescens; test: Tobacco budworm (Heliothis virescens) microtiter diet test; details: 120 h, 2500 ppm, 5 days, read-out: Egg and larval mortality in comparison with untreated controls
Description: as §1
For evaluating control of tobacco budworm (Heliothis virescens) the test unit consisted of 96-well-microtiter plates containing an insect diet and 15-25 H. virescens eggs. The compounds were formulated using a solution containing 75% v/v water and 25% v/v DMSO. Different concentrations of formulated compounds were sprayed onto the insect diet at 10 µl, using a custom built micro atomizer, at two replications. After application, microtiter plates were incubated at about 28 ± 1° C. and about 80 ± 5% relative humidity for 5 days. Egg and larval mortality was then visually assessed.

[4] = tested on: Trialeurodes vaporariorum; test: Greenhouse whitefly (Trialeurodes vaporariorum) egg plant leaf disk test; details: foliar, 144 h, 6 days, read-out: Mortality of hatched crawlers in comparison with untreated controls
Description: as §1
For evaluating control of Greenhouse Whitefly (Trialeurodes vaporariorum) the test unit consisted of 96-well-microtiter plates containing a leaf disk of egg plant leaf disk with white fly eggs. The compounds or mixtures were formulated using a solution containing 75% water and 25% DMSO. Different concentrations of formulated were sprayed onto the insect diet at 2.5 µl, using a custom built micro atomizer, at two replications. After application, microtiter plates were incubated at 23 ± 1° C., 65 ± 5% RH for 6 days. Mortality of hatched crawlers was then visually assessed.

[5] = tested on: Megoura viciae; test: Vetch aphid (Megoura viciae) broad bean leaf disk test; details: foliar, 120 h, 5 days, adult aphids on treated leaf disks, read-out: Aphid mortality in comparison with untreated controls
Description: as §1
For evaluating control of vetch aphid (Megoura viciae) through contact or systemic means the test unit consisted of 24-well-microtiter plates containing broad bean leaf disks.
The compounds were formulated using a solution containing 75% v/v water and 25% v/v DMSO. Different concentrations of formulated compounds were sprayed onto the leaf disks at 2.5 µl, using a custom built micro atomizer, at two replications. After application, the leaf disks were air-dried and 5 - 8 adult aphids placed on the leaf disks inside the microtiter plate wells. The aphids were then allowed to suck on the treated leaf disks and incubated at about 23 ± 1° C. and about 50 ± 5% relative humidity for 5 days. Aphid mortality and fecundity was then visually assessed.

[6] = tested on: Anthonomus grandis; test: Boll weevil (Anthonomus grandis) microtiter diet test; details: 120 h, 2500 ppm, 5 days, read-out: Egg and larval mortality in comparison with untreated controls
Description: as §1
For evaluating control of boll weevil (Anthonomus grandis) the test unit consisted of 96-well-microtiter plates containing an insect diet and 5-10 A. grandis eggs. The compounds were formulated using a solution containing 75% v/v water and 25% v/v DMSO. Different concentrations of formulated compounds were sprayed onto the insect diet at 5 µl, using a custom built micro atomizer, at two replications. After application, microtiter plates were incubated at about 25 ± 1° C. and about 75 ± 5% relative humidity for 5 days. Egg and larval mortality was then visually assessed.

[7] = tested on: Myzus persicae; test: Green peach aphid (Myzus persicae) systemic artificial diet test; details: 72 h, 3 days, adult aphids on treated diet, read-out: Aphid mortality in comparison with untreated controls
Description: as §1
For evaluating control of green peach aphid (Myzus persicae) through systemic means the test unit consisted of 96-well-microtiter plates containing liquid artificial diet under an artificial membrane. The compounds were formulated using a solution containing 75% v/v water and 25% v/v DMSO. Different concentrations of formulated compounds were pipetted into the aphid diet, using a custom built pipetter, at two replications. After application, 5 - 8 adult aphids were placed on the artificial membrane inside the microtiter plate wells. The aphids were then allowed to suck on the treated aphid diet and incubated at about 23 ± 1° C. and about 50 ± 5 % relative humidity for 3 days. Aphid mortality and fecundity was then visually assessed.

CCS(=O)(=O)c1cc(C(C)(C)C#N)cnc1-c1cn2c(=O)n(C3CC3)c(C(F)(F)F)cc2n1 [Compound C-4]
> 75%: mortality at 800 ppm [1] | mortality at 800 ppm [2] | mortality at 2500 ppm [3] | mortality at 800 ppm ([4]; 800 ppm) | mortality at 2500 ppm ([4]; 2500 ppm) | mortality at 2500 ppm [5] | mortality at 2500 ppm [6] | mortality at 800 ppm ([7]; 800 ppm) | mortality at 2500 ppm ([7]; 2500 ppm)
